From PMC9433906, “Evaluation of the biotechnological potential of peptide Cupiennin 1a and analogs” (Frontiers in Microbiology, 2022)
Values after ≈ are worked out from the molar mass of the structure shown. Where a SMILES comes first, the peptide text is derived from it.

Columns and labels:
RAW 264.7 cells = experiment: MTT cytotoxicity test against RAW 264.7; format: cell-based, mice; conditions: 24 h; for toxicity against RAW264.7 cells (in words): tested concentrations of Table 1 (128–16 μg.ml^−1)
Experimental: The cell line RAW 264.7 was obtained from the Rio de Janeiro Cell Bank (CR108). These cells are macrophages derived from induced tumors in male BALB/c mice infected with Abelson’s murine leukemia virus ([Raschke et al., 1978]). RAW264.7 cells were grown in DMEM medium (Dulbecco’s Modified Eagle’s medium, composed of CaCl2 (anhydrous) 200 mg.ml^−1, Fe(NO3).9H2O 0.1 mg.ml^−1, KCL 400 mg.ml^−1, MgSO4 (anhydrous) 97.67 mg.ml^−1, NaCL 6.400 mg.ml^−1, NaH2PO4.H2O 125 mg.ml^−1) supplemented with 10% (v/v) of bovine fetal serum, 0.5% (v/v) of DMEM amino acid solution, 0.05% (w/v) gentamicin, 0.5% (w/v) of L-glutamine, and 0.5% (w/v) of penicillin/streptomycin (1,000 U.ml^−1) in an incubator containing 5% CO2, at 37°C, and 95% humidity ([Raschke et al., 1978]; [Nguyen et al., 2017]).
RAW 264.7 cells were seeded in 96-well plates, at a concentration of 10^4 cells/well, and incubated for 24 h. Each peptide was subsequently added at different micromolar concentrations (Table 1). Positive control was performed by cells in culture medium and negative control, as cell culture in lysis solution (10 mM Tris, 1 mM EDTA, and 0.1% Triton X-100, pH 7.4).
Cell viability analyses were performed in technical and biological replicates, and readings were obtained after 24 h of contact with peptides. At the end of the incubation period, MTT (Sigma-Aldrich, United States) was used to assess the ability of living cells to reduce salt 3-[4,5-dimethylthiazole-2-yl]-2,5-diphenyltetrazolium bromide for formazan production. Plates were read at 570 ηm ([Mosmann, 1983]) and results were expressed in the percentage of living cells. The results were analyzed using GraphPad Prism 8 software where a One-Way ANOVA statistical test was followed by Bonferroni’s multiple comparisons test.

[1] = tested on: K. pneumoniae (ATCC 13883); format: cell-based, Klebsiella pneumoniae; conditions: K. pneumoniae (ATCC13883); 5×10^5 CFU.ml^−1, Mueller-Hinton Broth, 37°C, 24 h, OD 595 nm, biological triplicates
Experimental: (§1) Susceptibility tests were performed using clinical isolates of Klebsiella pneumoniae carbapenemase (KPC 1410503) and methicillin-resistant S. aureus (MRSA 3730592). Tests were also performed with ATCC (American Type Culture Collection) isolates of K. pneumoniae (ATCC 13883) and S. aureus (ATCC 25923).
(§2) Two multidrug-resistant clinical isolates and two ATCC isolates were chosen to perform microbial susceptibility testing as models for studies with bacteria susceptible to antimicrobials found in the Gram-Positive and Gram-Negative groups of bacteria.
(§3) The broth microdilution method was performed according to the Clinical and Laboratory Standards Institute (CLSI) M07-A10 protocol to determine the Minimum Inhibitory Concentration (MIC; [Clinical Laboratory Standards Institute, 2015]). The assay was performed on 96-well microplates (TPP, United States), containing 5×10^5 CFU.ml^−1 of each tested bacterium per well and different peptide micromolar concentrations (Table 1) in a final volume of 100 μl of Mueller-Hinton Broth (MH). Negative control was represented by bacteria incubated in MH medium, while positive control was represented by culture incubated in MH medium with Amikacin. Plates were kept under agitation at 37°C in a BioTek spectrophotometer (PowerWaveTM HT Microplate Reader) with optical density (OD) readings at 595 nm every 30 min for 24 h. Inhibition results were analyzed using GraphPad Prism 8 software by comparing the OD from negative control wells (100%) to those containing peptides. All tests were performed in biological triplicates.

[2] = tested on: Klebsiella pneumoniae carbapenemase (KPC 1410503); format: cell-based; conditions: K. pneumoniae carbapenemase—KPC clinical isolate 1410503; 5×10^5 CFU.ml^−1, Mueller-Hinton Broth, 37°C, 24 h, OD 595 nm, biological triplicates; NE = MIC value not found
Experimental: as §1, §2, §3

Row | SMILES | toxicity to RAW264.7 cells at the MIC concentration (in words) (RAW 264.7 cells; R1b: MIC found for KPC1410503, R3b: MIC at high concentrations against all tested microorganisms) | toxicity against RAW264.7 cells (in words) (RAW 264.7 cells) | Minimum inhibitory concentration (MIC) [1] [µM] | cell viability (RAW264.7) in the MIC found for the two strains of S. aureus (RAW 264.7 cells; at the MIC of R6b for these strains (17.7 μM in Table 3)) [%] | cell viability in RAW264.7 cells from the MIC concentration found for MRSA3730592, S. aureus ATCC25923, K. pneumoniae ATCC13883 (RAW 264.7 cells; at the MIC of R8b for these strains (17.60 μM in Table 3)) [%] | Minimum inhibitory concentration (MIC) [2] [µM] | cell viability in RAW cells at the MIC value found for bacteria (RAW 264.7 cells; 17.07 and 8.53 μM)
1 | CC(C)C[C@H](NC(=O)[C@H](C)NC(=O)CNC(=O)[C@H](Cc1ccccc1)NC(=O)CN)C(=O)N[C@@H](Cc1ccccc1)C(=O)N[C@@H](CCCCN)C(=O)N[C@@H](CCCNC(=N)N)C(=O)N[C@@H](CC(C)C)C(=O)N[C@@H](C)C(=O)N[C@@H](CCCCN)C(=O)N[C@@H](CCCCN)C(=O)N[C@H](C(=O)N[C@@H](C)C(=O)N[C@@H](CCCCN)C(=O)N[C@H](C(=O)N[C@H](C(=O)N[C@@H](C)C(N)=O)C(C)C)[C@@H](C)O)C(C)C [Peptide R3b] (H-GFGALFKRLAKKVAKTVA-NH2) | toxic | high toxicity | 67.21 (≈ 128 µg/mL) |  |  |  | 
2 | CC(C)C[C@H](NC(=O)[C@H](C)NC(=O)CNC(=O)[C@H](Cc1ccccc1)NC(=O)CN)C(=O)N[C@@H](Cc1ccccc1)C(=O)N[C@@H](CCCCN)C(=O)N[C@@H](Cc1ccccc1)C(=O)N[C@@H](CC(C)C)C(=O)N[C@@H](C)C(=O)N[C@@H](CCCCN)C(=O)N[C@@H](C)C(=O)N[C@H](C(=O)N[C@@H](C)C(=O)N[C@@H](CCCCN)C(=O)N[C@@H](C)C(=O)N[C@H](C(=O)N[C@@H](C)C(N)=O)C(C)C)C(C)C [Peptide R6b] (H-GFGALFKFLAKAVAKAVA-NH2) |  | high toxicity | 35.4 (≈ 64 µg/mL) | 62 |  |  | 
3 | CC(C)C[C@H](NC(=O)[C@H](C)NC(=O)CNC(=O)[C@H](Cc1ccccc1)NC(=O)CN)C(=O)N[C@@H](Cc1ccccc1)C(=O)N[C@@H](CCCCN)C(=O)N[C@@H](CCCNC(=N)N)C(=O)N[C@@H](CC(C)C)C(=O)N[C@@H](C)C(=O)N[C@@H](CCCCN)C(=O)N[C@@H](C)C(=O)N[C@H](C(=O)N[C@@H](C)C(=O)N[C@@H](CCCCN)C(=O)N[C@@H](C)C(=O)N[C@H](C(=O)N[C@@H](C)C(N)=O)C(C)C)C(C)C [Peptide R8b] (H-GFGALFKRLAKAVAKAVA-NH2) |  |  | 17.60 (≈ 32 µg/mL) |  | 59 | 35.21 (≈ 64 µg/mL) | 
4 | CC(C)C[C@H](NC(=O)[C@H](CCCNC(=N)N)NC(=O)[C@H](CCCCN)NC(=O)[C@H](Cc1ccccc1)NC(=O)[C@H](CC(C)C)NC(=O)[C@H](CCCCN)NC(=O)CNC(=O)[C@H](Cc1ccccc1)NC(=O)CN)C(=O)N[C@@H](C)C(=O)N[C@@H](CCCCN)C(=O)N[C@@H](C)C(=O)N[C@H](C(=O)N[C@@H](C)C(=O)N[C@@H](CCCCN)C(=O)N[C@@H](C)C(=O)N[C@H](C(=O)N[C@@H](C)C(N)=O)C(C)C)C(C)C [Peptide R10b] (H-GFGKLFKRLAKAVAKAVA-NH2) |  | high toxicity | 17.07 (≈ 32 µg/mL) |  |  | 17.07 (≈ 32 µg/mL) | more than 50%
